# System: HepG2 fatty liver cells (induced with oleic acid)
# Test: Reduction of TG content in oleic acid-induced HepG2 fatty liver cells
# Type: cell-based, human
# Conditions: Homo sapiens, 72 h; tested substances 1.0 uM, fatty liver cells from HepG2; read-out: TG reduction rate
# Experimental: The activity of the various compounds of the present invention in reduction of fat content was analyzed by using human hepatoma cell line Hep G2.
# HepG2 cell lines (15×10^6 cells) were cultured in DMEM culture No. B, incubated in an incubator with 5% CO2 at 37° C. for 24 hours, cultured in DMEM culture No. C (serum-free medium) for 24 hours, and finally cultured in DMEM culture No. D (containing oleate/albumin complex) for another 48 hours to induce HepG2 cell lines to form fatty liver cells.
# HepG2 cell lines were divided into six groups, including: (1) Blank: no treatment; (2) DMSO group: cells from Blank were treated with dimethyl sulfoxide (DMSO); (3) Control: induction with oleic acid to form fatty liver cells; (4) Vehicle group: fatty liver cells formed by induction with oleic acid were treated with DMSO; (5) Positive control: fatty liver cells were treated with silymarin; and (6) Test Group: fatty liver cells were treated with various compounds of the present invention.
# After incubation for 72 hours, the treated cells from each group were successively washed twice with PBS, and then incubated with 0.5 ml of trypsin/EDTA for 3 minutes. Afterwards, the cells were scraped with 2 ml of PBS and then transferred to the centrifuge tube to be shattered by ultrasonic. 20 μl of the cell extracts was taken to determine the content of protein. TG determination was performed using commercially available combination of agents (Randox). The TG content obtained above was divided by the protein content to obtain a ratio, representing a relative TG content in the cells.
# The equation for calculating reduction rate (%) of TG was as follows: [1−(TG content of Test Group−TG content of Blank)/(TG content of Oleic acid induction Group−TG content of Blank)]×100%.
row,Compound,inhibition at 1 µM [%]
1,OC[C@@H](O)[C@@H](O)[C@H](O)[C@@H](O)CO [sorbitol],20.1 ± 2.57
2,CCCCCCCCCCCCOS(=O)(=O)[O-].[Na+] [sodium lauryl sulfate],38.7 ± 4.65
3,OC[C@@H](O)[C@H](O)[C@@H](O)CO [xylitol],7.36 ± 6.34
4,O=c1cc(-c2ccc(O)cc2)oc2cc(O)c([C@@H]3O[C@H](CO)[C@@H](O)[C@H](O)[C@H]3O)c(O)c12 [isovitexin],35.9 ± 3.35
5,"C=C[C@H]1[C@H](O[C@@H]2O[C@H](CO)[C@@H](O)[C@H](O)[C@H]2O)OC=C2C(=O)OCC[C@]21O [swrtiamarin, swertiamarin]",6.72 ± 11
6,O=c1c(-c2ccc(O)cc2)coc2cc(O)ccc12 [daidzein],42.3 ± 5.34
7,O=C(O)[C@H]1O[C@@H](Oc2cc3oc(-c4ccccc4)cc(=O)c3c(O)c2O)[C@H](O)[C@@H](O)[C@@H]1O [baicalin],9.21 ± 6.21
8,"OCC(O)CO [glycerrin, glycerin]",16.2 ± 4.25
9,O=c1c(O)c(-c2ccc(O)cc2)oc2cc(O)cc(O)c12 [kaempferol],36.5 ± 4.78
10,COc1ccc(-c2coc3cc(O)ccc3c2=O)cc1 [formononetin],29.6 ± 1.44
11,CCCCCCCCCCCCCC(=O)OCC [myristic acid ethyl ester],28.9 ± 3.91
12,COc1ccc([C@@H]2CC(=O)c3c(O)cc(O[C@@H]4O[C@H](CO)[C@@H](O)[C@H](O)[C@H]4O[C@@H]4O[C@@H](C)[C@H](O)[C@@H](O)[C@H]4O)cc3O2)cc1 [poncirin],38.1 ± 7.22
13,O=c1ccc2ccc(O)cc2o1 [umbelliferone],17.4 ± 2.57
14,O=C(O)/C=C/c1ccccc1 [trans-Cinnamic Acid],15.8 ± 0.82
15,CC(C)[C@@H](C)/C=C/[C@@H](C)[C@H]1CC[C@H]2C3=CC=C4C[C@@H](O)CC[C@]4(C)[C@H]3CC[C@]12C [ergosterol],34.2 ± 3.69
16,O=C(CCc1ccc(O)cc1)c1c(O)cc(O)cc1O[C@@H]1O[C@H](CO)[C@@H](O)[C@H](O)[C@H]1O [phloridzin],42.4 ± 6.05
17,COc1ccc(-c2cc(=O)c3c(OC)c(OC)c(OC)cc3o2)cc1OC [sinensetin],37 ± 4.84

row,Compound,inhibition at 1 µM [%]
1,O=c1c(O)c(-c2ccccc2)oc2cc(O)cc(O)c12 [galangin],28.1 ± 8.62
2,COc1cc(C2Oc3cc([C@H]4Oc5cc(O)cc(O)c5C(=O)[C@@H]4O)ccc3OC2CO)ccc1O (stereo partly drawn) [silybin],30.3 ± 3.24
3,C[C@@H]1O[C@@H](O[C@H]2[C@H](Oc3cc(O)c4c(c3)O[C@H](c3ccc(O)cc3)CC4=O)O[C@H](CO)[C@@H](O)[C@@H]2O)[C@H](O)[C@H](O)[C@H]1O [naringin],12.7 ± 3.72
4,CC1(C)[C@@H](O[C@H]2O[C@H](C(=O)O)[C@@H](O)[C@H](O)[C@H]2O[C@@H]2O[C@H](C(=O)O)[C@@H](O)[C@H](O)[C@H]2O)CC[C@]2(C)[C@H]3C(=O)C=C4[C@@H]5C[C@@](C)(C(=O)O)CC[C@]5(C)CC[C@@]4(C)[C@]3(C)CC[C@@H]12 [glycyrrhizin],10.6 ± 7.4
5,O=C1c2c(O)cc(O)cc2O[C@H](c2ccc(O)c(O)c2)[C@H]1O [(+)-taxifolin],17.9 ± 8.35
6,"CC/C=C\C/C=C\C/C=C\C/C=C\C/C=C\CCCC(=O)O [eicosapentaenoic acid (EPA), eicosapentaenoic acid]",26.1 ± 6.14
7,O=C(O)CC(O)(CC(=O)O)C(=O)O [citric acid],2.55 ± 4.43
8,O=c1c(O[C@@H]2O[C@H](CO)[C@H](O)[C@H](O)[C@H]2O)c(-c2ccc(O)c(O)c2)oc2cc(O)cc(O)c12 [hyperoside],30.5 ± 2.8
9,CC(Cc1ccc(O)c(O)c1)C(C)Cc1ccc(O)c(O)c1 (stereo not drawn) [nordihydroguaiaretic acid],15.9 ± 2.3
10,O=c1c(O)c(-c2ccc(O)cc2O)oc2cc(O)cc(O)c12 [morin],25.8 ± 10.7
11,C[C@H]1[C@H](C)CC[C@]2(C(=O)O)CC[C@]3(C)C(=CC[C@@H]4[C@@]5(C)CC[C@H](O)C(C)(C)[C@@H]5CC[C@]43C)[C@H]12 [ursolic Acid],35.9 ± 8.92
12,C/C=C/C=C/C(=O)O [sorbic acid],2.03 ± 1.96
13,C=CC(=C)CCC=C(C)C [β-myrcene],34 ± 11.2
14,O=c1cc(-c2ccccc2)oc2cc(O)c(O)c(O)c12 [baicalein],7.09 ± 10.9
15,COc1ccc(-c2cc(=O)c3c(O)cc(O[C@@H]4O[C@H](CO[C@@H]5O[C@@H](C)[C@H](O)[C@@H](O)[C@H]5O)[C@@H](O)[C@H](O)[C@H]4O)cc3o2)cc1O [diosmin],11.9 ± 3.73
16,O=c1cc(-c2ccc(O)c(O)c2)oc2cc(O)cc(O)c12 [luteolin],6.95 ± 15.2

# Same assay, conditions: Homo sapiens, HepG2, 72 h, read-out: TG reduction rate
row,Compound,inhibition at 1 µM [%]
1,O=C(O)c1ccc(O)c(O)c1 [protocatechuic acid],18.6 ± 7.6
2,C[C@@H]1O[C@@H](Oc2c(-c3ccc(O)c(O)c3)oc3cc(O)cc(O)c3c2=O)[C@H](O)[C@H](O)[C@H]1O [quercitrin],9.15 ± 9.24

# Same assay, conditions: tested substances 1.0 uM, fatty liver cells from HepG2
row,Compound,TG reduction rate [%]
1,(−)-epicatechin-3-gallate,32.7 ± 4.33

# From patent US10925854B2, “Methods and compositions for preventing or treating fatty liver, protecting liver function or ameliorating liver diseases caused by fatty liver or other associated disorders” (SINEW PHARMA INC., priority 2015, dated 2021)
